Reference: ChEMBL document CHEMBL5532698, “2,3-Dihydroquinazolin-4(1H)-ones and quinazolin-4(3H)-ones as broad-spectrum cytotoxic agents and their impact on tubulin polymerisation” (RSC Med Chem, 2024)

Columns and labels:
MCF7 [1] = assay: Antiproliferative activity against human MCF7 cells assessed as cell growth inhibition at 25 uM incubated for 72 hrs by MTT assay relative to control; assay type: functional
MIA PaCa-2 [2] = assay: Antiproliferative activity against human MIA PaCa-2 cells assessed as cell growth inhibition at 25 uM incubated for 72 hrs by MTT assay relative to control; assay type: functional
[3] = Cytotoxicity against human MCF-10A cells assessed as cell growth inhibition incubated for 72 hrs by MTT assay; assay type: toxicity, cell-based
[4] = Cytotoxicity against human MCF-10A cells assessed as cell growth inhibition at 25 uM incubated for 72 hrs by MTT assay relative to control; assay type: toxicity, cell-based
DU-145 [5] = assay: Antiproliferative activity against human DU-145 cells assessed as cell growth inhibition incubated for 72 hrs by MTT assay; assay type: functional
A2780 [6] = assay: Antiproliferative activity against human A2780 cells assessed as cell growth inhibition incubated for 72 hrs by MTT assay; assay type: functional
U-87 MG [7] = assay: Antiproliferative activity against human U87 cells assessed as cell growth inhibition incubated for 72 hrs by MTT assay; assay type: functional, U-87MG ATCC
A-431 [8] = assay: Antiproliferative activity against human A-431 cells assessed as cell growth inhibition at 25 uM incubated for 72 hrs by MTT assay relative to control; assay type: functional
A-431 [9] = assay: Antiproliferative activity against human A-431 cells assessed as cell growth inhibition incubated for 72 hrs by MTT assay; assay type: functional
HT-29 [10] = assay: Antiproliferative activity against human HT-29 cells assessed as cell growth inhibition at 25 uM incubated for 72 hrs by MTT assay relative to control; assay type: functional
NCI-H460 [11] = assay: Antiproliferative activity against human NCI-H460 cells assessed as cell growth inhibition incubated for 72 hrs by MTT assay; assay type: functional
U-87 MG [12] = assay: Antiproliferative activity against human U87 cells assessed as cell growth inhibition at 25 uM incubated for 72 hrs by MTT assay relative to control; assay type: functional, U-87MG ATCC
[13] = Antiproliferative activity against human SJG2 cells assessed as cell growth inhibition incubated for 72 hrs by MTT assay; assay type: functional; details: SJ-G2
MCF7 [14] = assay: Antiproliferative activity against human MCF7 cells assessed as cell growth inhibition incubated for 72 hrs by MTT assay; assay type: functional
A2780 [15] = assay: Antiproliferative activity against human A2780 cells assessed as cell growth inhibition at 25 uM incubated for 72 hrs by MTT assay relative to control; assay type: functional
BE(2)-C [16] = assay: Antiproliferative activity against human BE2C cells assessed as cell growth inhibition at 25 uM incubated for 72 hrs by MTT assay relative to control; assay type: functional
[17] = Antiproliferative activity against human SJG2 cells assessed as cell growth inhibition at 25 uM incubated for 72 hrs by MTT assay relative to control; assay type: functional; details: SJ-G2
MIA PaCa-2 [18] = assay: Antiproliferative activity against human MIA PaCa-2 cells assessed as cell growth inhibition incubated for 72 hrs by MTT assay; assay type: functional
HT-29 [19] = assay: Antiproliferative activity against human HT-29 cells assessed as cell growth inhibition incubated for 72 hrs by MTT assay; assay type: functional
DU-145 [20] = assay: Antiproliferative activity against human DU-145 cells assessed as cell growth inhibition at 25 uM incubated for 72 hrs by MTT assay relative to control; assay type: functional
NCI-H460 [21] = assay: Antiproliferative activity against human NCI-H460 cells assessed as cell growth inhibition at 25 uM incubated for 72 hrs by MTT assay relative to control; assay type: functional
BE(2)-C [22] = assay: Antiproliferative activity against human BE2C cells assessed as cell growth inhibition incubated for 72 hrs by MTT assay; assay type: functional

Structure (SMILES) | GI50 (DU-145 [5]) | GI50 (A2780 [6]) | GI50 (U-87 MG [7]) | GI50 (A-431 [9]) | GI50 (NCI-H460 [11]) | GI50 (MCF7 [14]) | GI50 (MIA PaCa-2 [18]) | GI50 (HT-29 [19]) | inhibition at 25 µM (MCF7 [1]) | inhibition at 25 µM (MIA PaCa-2 [2]) | GI50 at 72 h [3] | inhibition at 72 h, 25 µM [4] | inhibition at 25 µM (A-431 [8]) | inhibition at 25 µM (HT-29 [10]) | inhibition at 25 µM (U-87 MG [12]) | GI50 [13] | inhibition at 25 µM (A2780 [15]) | inhibition at 25 µM (BE(2)-C [16]) | inhibition at 25 µM [17] | GI50 (BE(2)-C [22]) | also measured
O=c1[nH]c(/C=C/c2cccc(O)c2)nc2ccccc12 | 1.9 µM | 3.1 µM | 8.9 µM | 3 µM | 2.6 µM | 1.3 µM | 2.9 µM | 5.9 µM | > 100% | > 100% | 3.1 µM | 97% | > 100% | > 100% | 73% | 2.5 µM | > 100% | > 100% | > 100% | 1.8 µM | inhibition at 25 µM (DU-145 [20]): > 100%; inhibition at 25 µM (NCI-H460 [21]): > 100%
CCCCCCCCC1NC(=O)c2ccccc2N1 (stereo not given) | > 50 µM | 4.2 µM | > 50 µM | 7.1 µM | 14 µM | 2.9 µM | 12 µM | 13 µM | > 100% | 75% | 11 µM | 80% | 91% | 93% | 39% | 13 µM | 96% | 85% | 77% | 9.2 µM | inhibition at 25 µM (DU-145 [20]): 53%; inhibition at 25 µM (NCI-H460 [21]): 61%
O=C1NC(C2CC=CCC2)Nc2ccccc21 (stereo not given) | 19 µM | 3.9 µM | 17 µM | 3.8 µM | 11 µM | 15 µM | 12 µM | 5.4 µM | 72% | 82% | 11 µM | 89% | > 100% | > 100% | 67% | 17 µM | 99% | 97% | 87% | 5.7 µM | inhibition at 25 µM (DU-145 [20]): 67%; inhibition at 25 µM (NCI-H460 [21]): 91%
O=C1NC(/C(Br)=C/c2ccccc2)Nc2ccccc21 (stereo not given) | 3.1 µM | 5 µM | 5.7 µM | 8.2 µM | 4.7 µM | 8.5 µM | 12 µM | 2.6 µM | > 100% | 81% | 2.9 µM | 99% | > 100% | > 100% | 95% | 12 µM | 94% | 87% | > 100% | 10 µM | inhibition at 25 µM (DU-145 [20]): > 100%; inhibition at 25 µM (NCI-H460 [21]): 97%
O=c1[nH]c(/C=C/c2ccc(Br)cc2)nc2ccccc12 | 8.9 µM | 3.6 µM | 13 µM | 11 µM | 11 µM | 3.1 µM | 14 µM | 3.2 µM | > 100% | 68% | 4.6 µM | 86% | 78% | 94% | 83% | 15 µM | 93% | 78% | 76% | 6.4 µM | inhibition at 25 µM (DU-145 [20]): 77%; inhibition at 25 µM (NCI-H460 [21]): 70%
N#Cc1ccc2[nH]cc(-c3nc4ccccc4c(=O)[nH]3)c2c1 | 2.8 µM | 2.7 µM | 3.2 µM | 4.9 µM | 2.5 µM | 2.7 µM | 3.5 µM | 3.9 µM |  |  | 3.5 µM |  |  |  |  | 2.8 µM |  |  |  | 3.4 µM | 

Continued, in another order:

GI50 (DU-145 [5]) | GI50 (A2780 [6]) | GI50 (U-87 MG [7]) | GI50 (A-431 [9]) | GI50 (NCI-H460 [11]) | GI50 (MCF7 [14]) | GI50 (MIA PaCa-2 [18]) | GI50 (HT-29 [19]) | Structure (SMILES) | inhibition at 25 µM (MCF7 [1]) | inhibition at 25 µM (MIA PaCa-2 [2]) | GI50 at 72 h [3] | inhibition at 72 h, 25 µM [4] | inhibition at 25 µM (A-431 [8]) | inhibition at 25 µM (HT-29 [10]) | inhibition at 25 µM (U-87 MG [12]) | GI50 [13] | inhibition at 25 µM (A2780 [15]) | inhibition at 25 µM (BE(2)-C [16]) | inhibition at 25 µM [17] | GI50 (BE(2)-C [22]) | also measured
4.8 µM | 2.9 µM | 4.1 µM | 2.7 µM | 3.1 µM | 3.3 µM | 3.5 µM | 2.6 µM | O=C1NC(c2cc3ccccc3o2)Nc2ccccc21 (stereo not given) | 63% | 76% | 3.9 µM | 76% | ≥ 75% | ≥ 92% | 47% | 3 µM | ≥ 57% | 66% | ≥ 71% | 3.1 µM | inhibition at 25 µM (DU-145 [20]): ≥ 28%; inhibition at 25 µM (NCI-H460 [21]): 77%
3 µM | 2.9 µM | 3.2 µM | 2.7 µM | 3.2 µM | 5.6 µM | 4.4 µM | 2.9 µM | O=C1NC(c2cccc(C(F)(F)F)c2)Nc2ccccc21 (stereo not given) | 83% | 95% | 3.1 µM | > 100% | > 100% | > 100% | > 100% | 3.3 µM | 100% | > 100% | > 100% | 3.1 µM | inhibition at 25 µM (DU-145 [20]): > 100%; inhibition at 25 µM (NCI-H460 [21]): 100%
2.3 µM | 2.6 µM | 2.7 µM | 2.1 µM | 3.3 µM | 5.8 µM | 4.1 µM | 1.7 µM | COc1cccc(C2NC(=O)c3ccccc3N2)c1 (stereo not given) | 85% | 94% | 3.2 µM | > 100% | > 100% | > 100% | 99% | 3.3 µM | 100% | > 100% | > 100% | 2.3 µM | inhibition at 25 µM (DU-145 [20]): > 100%; inhibition at 25 µM (NCI-H460 [21]): 100%
10 µM | 3.2 µM | 16 µM | 3.2 µM | 10 µM | 12 µM | 8.8 µM | 3.7 µM | O=C1NC(c2ccc(O)cc2)Nc2ccccc21 (stereo not given) | 55% | 84% | 9.9 µM | 91% | 108% | > 100% | 72% | 8.9 µM | 95% | 100% | > 100% | 4.1 µM | inhibition at 25 µM (DU-145 [20]): 90%; inhibition at 25 µM (NCI-H460 [21]): 88%
4.3 µM | 2.5 µM | 10 µM | 2.3 µM | 3.6 µM | 3.7 µM | 4.2 µM | 2.4 µM | O=C1NC(c2ccccc2Br)Nc2ccccc21 (stereo not given) | 82% | 89% | 4.3 µM | 94% | > 100% | > 100% | 80% | 3 µM | 96% | > 100% | > 100% | 2.5 µM | inhibition at 25 µM (DU-145 [20]): 100%; inhibition at 25 µM (NCI-H460 [21]): 95%
4 µM | 3 µM | 4.3 µM | 2.1 µM | 3.3 µM | 7.4 µM | 3.6 µM | 2.2 µM | O=C1NC(/C=C/c2ccco2)Nc2ccccc21 (stereo not given) | 83% | 93% | 3.4 µM | 100% | > 100% | 90% | 99% | 3 µM | > 100% | 100% | 100% | 2.6 µM | inhibition at 25 µM (DU-145 [20]): 100%; inhibition at 25 µM (NCI-H460 [21]): 93%
26 µM | 11 µM | > 50 µM | 17 µM | 14 µM | 3.8 µM | 7.5 µM | 8.7 µM | O=C1NC(c2ccc([N+](=O)[O-])cc2)Nc2ccccc21 (stereo not given) | > 100% | 52% | 11 µM | 58% | 57% | 70% | 22% | 10 µM | 65% | 53% | 56% | 10 µM | inhibition at 25 µM (DU-145 [20]): 50%; inhibition at 25 µM (NCI-H460 [21]): 61%
